Earlier results as cited in patent US20110165150A1, “Isolated organ perfusion combination therapy of cancer” (Merck Patent GmbH, priority 2006, published 2011).

Test system: integrin receptors αvβ3, αvβ1, αvβ6, αvβ8, αIIbβ3
Conditions: especially αvβ3 and/or αvβ5

blocking the integrin receptors: efficacious in blocking
Compound: CC(C)[C@H]1C(=O)N[C@@H](CCCN=C(N)N)C(=O)NCC(=O)N[C@@H](CC(=O)O)C(=O)N[C@H](Cc2ccccc2)C(=O)N1C [Cilengitide, cyclo-(Arg-Gly-Asp-DPhe-NMeVal)]
